Experimental data: US20220298115A1, “SMALL MOLECULE INHIBITORS OF ACETYL COENZYME A SYNTHETASE SHORT CHAIN 2 (ACSS2)” (Curadev Pharma Pvt. Ltd., priority 2019, published 2022)

Experiments:
[1] = test system: [14C] acetate incorporation in macromolecules, BT474 cells; assay: Cell based [14C] acetate incorporation assay; conditions: Homo sapiens, BT-474, 3 h at 37° C., read-out: Cellular Activity (IC50 range)
How it was run: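 BT474 cells (4×10^4/well, plated overnight) were preincubated with compound for 10 min at 37°C in HBSS. They were then given 0.1 μCi [14C]acetate plus 10 μM unlabelled acetate (both in the added acetate solution) for 3 h at 37°C, 5% CO2. Label incorporated into macromolecules was harvested onto PEI-treated filters and counted by scintillation.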

human ACSS2 = biological target: T1, human ACSS2 (Homo sapiens, UniProt Q9NR19); assay: ACSS2 enzyme assay (acetyl-CoA formation, LC-MS/MS); type: biochemical; conditions: cytosolic fraction of BT474 cells as ACSS2 source; 100 μM acetate, CoA and ATP; 2 h at 25° C.; read-out: Enzyme Activity (IC50 range)
T1 construct: The cytosolic fraction of BT474 cells was used as a source of the ACSS2 enzyme; endogenous in cells; host or cells: BT474 cells (cytosolic fraction)
T1 sequence (Q9NR19 whole entry): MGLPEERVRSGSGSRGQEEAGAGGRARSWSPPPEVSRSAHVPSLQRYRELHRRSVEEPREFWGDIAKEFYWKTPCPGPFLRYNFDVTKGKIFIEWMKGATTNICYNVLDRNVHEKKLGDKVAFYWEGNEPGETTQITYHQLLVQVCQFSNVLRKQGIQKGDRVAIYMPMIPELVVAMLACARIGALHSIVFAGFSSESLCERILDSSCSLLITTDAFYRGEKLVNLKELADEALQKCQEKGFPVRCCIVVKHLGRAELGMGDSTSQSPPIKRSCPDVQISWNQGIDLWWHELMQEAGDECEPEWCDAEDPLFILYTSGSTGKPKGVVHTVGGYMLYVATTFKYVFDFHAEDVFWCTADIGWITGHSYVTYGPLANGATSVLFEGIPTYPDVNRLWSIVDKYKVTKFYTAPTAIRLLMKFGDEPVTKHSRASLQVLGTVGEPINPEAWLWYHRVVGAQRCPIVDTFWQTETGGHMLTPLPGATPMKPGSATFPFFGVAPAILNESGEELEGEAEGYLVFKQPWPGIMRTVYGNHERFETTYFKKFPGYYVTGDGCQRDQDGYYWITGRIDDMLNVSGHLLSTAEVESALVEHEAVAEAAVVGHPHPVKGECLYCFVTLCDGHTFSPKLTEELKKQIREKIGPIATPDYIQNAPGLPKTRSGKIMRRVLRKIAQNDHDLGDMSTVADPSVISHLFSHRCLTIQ
How it was run: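 Enzyme source was BT474 cytosolic fraction (100 ng), preincubated 5 min with compound in 25 mM Tris-HCl pH7.4, 1 mM MgCl2, 1 mM DTT, 0.05% Tween20, 1% DMSO. Reaction started with 100 μM each of acetate, CoA and ATP, 2 h at 25 °C, stopped with TCA; acetyl-CoA quantified by LC-MS/MS.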

Structure (SMILES)	IC50 [1] [nM]	IC50 (human ACSS2) [nM]
CCC(O)CNC(=O)Nc1ccc2nc(-c3ccccn3)c(-c3ccccc3)cc2c1 (centres unmarked) [Example 38, 1-(2-hydroxybutyl)-3-(3-phenyl-2-(pyridin-2-yl)quinolin-6-yl)urea]	≤ 1000	< 100
O=C(Nc1ccccc1)Nc1ccc2nc(-c3ccccc3)c(-c3ccccc3)cc2c1 [Example 140, 1-(2,3-diphenylquinolin-6-yl)-3-phenylurea]	> 10000	> 10000
CC[C@@H](O)CNC(=O)Nc1ccc2nc(C)c(-c3ccccc3)c(OC)c2c1 [Example 102, (R)-1-(2-hydroxybutyl)-3-(4-methoxy-2-methyl-3-phenylquinolin-6-yl)urea]	< 100	< 100
CCC(O)CNC(=O)Nc1ccc2nc(-c3ccccc3)c(-c3ccccc3)c(N(C)C)c2c1 (centres unmarked) [Example 91, 1-(4-(dimethylamino)-2,3-diphenylquinolin-6-yl)-3-(2-hydroxybutyl) urea]	< 100	< 100
CCC(O)CCC(=O)Nc1ccc2nc(-c3ccccc3F)c(-c3ccccc3F)cc2c1 (centres unmarked) [Example 128, N-(2,3-Bis(2-fluorophenyl)quinolin-6-yl)-4-hydroxyhexanamide]	< 100	< 100
CCC(O)CNC(=O)Nc1ccc2nc(-c3ccccc3)c(-c3ccccc3)cc2c1 (centres unmarked) [Example 1, 1-(2,3-diphenylquinolin-6-yl)-3-(2-hydroxybutyl) urea]	< 100	< 100
CCC(O)CNC(=O)Nc1ccc2nc(C(F)(F)F)c(-c3ccccc3)cc2c1 (centres unmarked) [Example 88, 1-(2-hydroxybutyl)-3-(3-phenyl-2-(trifluorometh-yl)quinolin-6-yl)urea]	> 10000	≤ 10000
CC[C@H](O)CNC(=O)Nc1ccc2nc(-c3ccccc3)c(-c3ccccc3F)cc2c1 [Example 67, (S)-1-(3-(2-fluorophenyl)-2-phenylquinolin-6-yl)-3-(2-hydroxybutyl) urea]	< 100	< 100
CCC(O)CNC(=O)Nc1ccc2nc(-c3cn[nH]c3)c(-c3cn[nH]c3)cc2c1 (centres unmarked) [Example 22, 1-(2,3-di(1H-pyrazol-4-yl)quinolin-6-yl)-3-(2-hydroxybutyl) urea]	> 10000	≤ 10000
CC(=O)N1CCN(C(=O)Nc2ccc3nc(-c4ccccc4)c(-c4ccccc4)cc3c2)CC1 [Example 133, 4-acetyl-N-(2,3-diphenylquinolin-6-yl)piperazine-1-carboxamide]	> 10000	≤ 10000
CCC(O)CNC(=O)Nc1ccc2nc(-c3ccc(F)cc3)c(-c3ccccc3F)cc2c1 (centres unmarked) [Example 47, 1-(3-(2-fluorophenyl)-2-(4-fluorophenyl)quinolin-6-yl)-3-(2-hydroxybutyl) urea]	< 100	< 100
CC[C@@H](O)CNC(=O)Nc1ccc2nc(C)c(-c3ccccc3)cc2c1-c1cnn(C)c1 [Example 96, (R)-1-(2-hydroxybutyl)-3-(2-methyl-5-(1-methyl-1H-pyrazol-4-yl)-3-phenylquinolin-6-yl)urea]	< 100	< 100
CCC(O)CNC(=O)Nc1ccc2nc(-c3ccccc3F)c(-c3ccccc3)cc2c1 (centres unmarked) [Example 8, 1-(2-(2-fluorophenyl)-3-phenylquinolin-6-yl)-3-(2-hydroxybutyl) urea]	< 100	< 100
CC[C@H](CNC(=O)Nc1ccc2nc(-c3ccccc3)c(-c3ccccc3F)cc2c1)OP(=O)(O)O [Example 117, (R)-1-(3-(3-(2-fluorophenyl)-2-phenylquinolin-6-yl)ureido)butan-2-yl dihydrogen phosphate]	< 100	< 100
CCC(O)CNC(=O)Nc1ccc2nc(-c3ccccc3)c(-c3ccccc3F)cc2c1 (centres unmarked) [Example 7, 1-(3-(2-fluorophenyl)-2-phenylquinolin-6-yl)-3-(2-hydroxybutyl) urea]	< 100	< 100
CCC(O)CNC(=O)Nc1ccc2nc(C)c(-c3ccccc3)cc2c1Br (centres unmarked) [Example 87, 1-(5-bromo-2-methyl-3-phenylquinolin-6-yl)-3-(2-hydroxybutyl) urea]	< 100	< 100
CCCCNC(=O)Nc1ccc2nc(-c3ccccc3)c(-c3ccccc3OC)cc2c1 [Example 23, 1-butyl-3-(3-(2-methoxyphenyl)-2-phenylquinolin-6-yl)urea]	< 100	< 100
O=C(Nc1ccc2nc(-c3ccccc3)c(-c3ccccc3)cc2c1)NC1CCOCC1 [Example 137, 1-(2,3-diphenylquinolin-6-yl)-3-(tetrahydro-2H-pyran-4-yl)urea]	≤ 1000	≤ 1000
CC[C@@H](O)CNC(=O)Nc1ccc2nc(-c3ccccc3)c(-c3ccccc3)c(C(N)=O)c2c1 [Example 57, (R)-6-(3-(2-hydroxybutyl)ureido)-2,3-diphenylquino-line-4-carboxamide]	< 100	< 100

Structure (SMILES)	IC50 [1] [nM]	IC50 (human ACSS2) [nM]
CCC(=O)CCC(=O)Nc1ccc2nc(-c3ccccc3)c(-c3ccccc3)cc2c1 [Example 125, N-(2,3-diphenyl-quinolin-6-yl)-4-oxohexan-amide]	< 100	< 100
CCC(O)CNC(=O)Nc1ccc2nc(/C=C/c3ccccc3)c(-c3ccccc3)cc2c1 (centres unmarked) [Example 50, (E)-1-(2-hydroxybutyl)-3-(3-phenyl-2-styrylquinolin-6-yl)urea]	> 10000	≤ 10000
CCC(O)CCC(=O)Nc1ccc2nc(-c3ccccc3)c(-c3ccccc3)cc2c1 (centres unmarked) [Example 127, N-(2,3-diphenyl-quinolin-6-yl)-4-hydroxy-hexanamide]	< 100	< 100
CC[C@@H](O)CNC(=O)Nc1ccc2nc(-c3ccccc3OC)c(-c3ccccc3F)cc2c1 [Example 35, (R)-1-(3-(2-fluorophenyl)-2-(2-methoxyphenyl)quinolin-6-yl)-3-(2-hydroxybutyl) urea]	< 100	< 100
CCC(O)CCC(=O)Nc1ccc2nc(C)c(-c3ccccc3)cc2c1 (centres unmarked) [Example 130, 4-hydroxy-N-(2-methyl-3-phenyl-quinolin-6-yl)hexan-amide]	≤ 1000	< 100
CN1CCN(C(=O)Nc2ccc3nc(-c4ccccc4)c(-c4ccccc4)cc3c2)CC1 [Example 132, N-(2,3-diphenylquinolin-6-yl)-4-methylpiperazine-1-carboxamide]	> 10000	≤ 10000
CC[C@@H](O)CNC(=O)Nc1ccc2nc(-c3ccccc3)c(-c3ccccc3)c(OC)c2c1 [Example 101, (R)-1-(2-Hydroxybutyl)-3-(4-methoxy-2,3-diphenylquinolin-6-yl)urea]	< 100	< 100
CCC(O)CNC(=O)Nc1ccc2nc(C)c(-c3ccccc3F)cc2c1 (centres unmarked) [Example 75, 1-(3-(2-fluorophenyl)-2-methylquinolin-6-yl)-3-(2-hydroxybutyl) urea]	< 100	< 100
O=C(Nc1ccc2nc(-c3ccccc3)c(-c3ccccc3)cc2c1)Nc1ccccn1 [Example 139, 1-(2,3-diphenylquinolin-6-yl)-3-(pyridin-2-yl)urea]	> 10000	> 10000
CCC(O)CNC(=O)Nc1ccc2nc(-c3cccc(F)c3)c(-c3cccc(F)c3)cc2c1 (centres unmarked) [Example 25, 1-(2,3-bis(3-fluorophenyl)quinolin-6-yl)-3-(2-hydroxybutyl) urea]	≤ 1000	≤ 1000
CCC(F)(F)CNC(=O)Nc1ccc2nc(-c3ccccc3)c(-c3ccccc3)cc2c1 [Example 107, 1-(2,2-difluorobutyl)-3-(2,3-diphenylquinolin-6-yl)urea]	< 100	< 100
CCC(O)CNC(=O)Nc1ccc2nc(-c3ccncc3)c(-c3ccncc3)cc2c1 (centres unmarked) [Example 24, 1-(2,3-di(pyridin-4-yl)quinolin-6-yl)-3-(2-hydroxybutyl) urea]	≤ 10000	≤ 1000
CC[C@H](O)CNC(=O)Nc1ccc2nc(-c3ccccc3)c(-c3ccccc3)cc2c1 [Example 30, (S)-1-(2,3-diphenylquinolin-6-yl)-3-(2-hydroxybutyl) urea]	< 100	< 100
CCC(O)CNC(=O)Nc1ccc2nc(-c3cccnc3O)c(-c3cccnc3O)cc2c1 (centres unmarked) [Example 42, 1-(2,3-bis(2-hydroxypyridin-3-yl)quinolin-6-yl)-3-(2-hydroxybutyl) urea]	> 10000	> 10000
CCC(O)CNC(=O)Nc1ccc2ncc(-c3ccccc3)c(C(N)=O)c2c1 (centres unmarked) [Example 71, 6-(3-(2-hydroxybutyl)ureido)-3-phenylquinoline-4-carboxamide]	> 10000	≤ 1000
CCCCNC(=O)Nc1ccc2nc(-c3ccccc3OC)c(-c3ccccc3F)cc2c1 [Example 37, 1-butyl-3-(3-(2-fluorophenyl)-2-(2-methoxyphenyl)quinolin-6-yl)urea]	< 100	< 100
CCC(O)CNC(=O)Nc1ccc2nc(-c3ccccc3C#N)c(-c3ccccc3F)cc2c1 (centres unmarked) [Example 53, 1-(2-(2-cyanophenyl)-3-(2-fluorophenyl)quinolin-6-yl)-3-(2-hydroxybutyl) urea]	≤ 1000	< 100
CCC(O)CNC(=O)Nc1ccc2nc(-c3ccccc3OC)c(-c3ccccc3)cc2c1 (centres unmarked) [Example 12, 1-(2-hydroxybutyl)-3-(2-(2-methoxyphenyl)-3-phenylquinolin-6-yl)urea]	< 100	< 100
